Results reported in US3984432A, “Color photographic recording material” (priority 1973, dated 1976).
One block for each compound: values may come before it.

Test: Absorption maximum after colour development in a photographic silver halide layer according to Use Example I
Type: physicochemical
Conditions: pyrazolone coupling agents
Experimental: The compounds of the formulae which follow are prepared according to methods which are in themselves known, from the corresponding 4-equivalentcoupling agents (the corresponding compounds with hydrogen in the position marked with *, in place of the substituents drawn). With regard to methods of manufacture, compare DT-OS or DT-AS 1,236,332, 2,043,271, 1,547,672 or 1,187,477. Next to the formula, the absorption maximum in nm is specified in each case (see footnote to Table I). ##SPC8##
*)After colour development of the coupling agents in a photographic silve
halide layer according to Use Example I
0.3 mmol of coupling agent of the formula (215) is dissolved in 2.0 ml of tricresyl phosphate/methylene chloride (3:7). The methylene chloride is evaporated off, 6.0 ml of an 8% strength aqueous solution of sodium isopropylnaphthalene-sulphonate, 20.0 ml of 6% strength gelatine solution and 3.4 ml of water are added and the mixture is adjusted to pH 6.5 and emulsified for 5 minutes by means of an ultrasonic apparatus with an output of 100 watt.
5.0 of coupling agent emulsion freshly treated with ultrasonics, 3.3 ml of silver bromide emulsion of pH 6.5, containing 1.4% of silver and 6.0% of gelatine, 2.0 ml of 1% strength aqueous solution of the hardener of the formula [formula] and 1.7 ml of water are mixed with one another and cast at 40°C on a substrated glass plate of size 13 cm × 18 cm. After solidifying at 10° C, the plate is dried in a drying cabinet with circulating air at 32° C.
A strip cut to 4.0 cm × 6.5 cm is exposed to 500 Lux/cm^2 under a step wedge for 2 seconds and is subsequently treated at 24° C as follows: […]

Compound: CCOP(=O)(CCCCCOc1cc(OCCCCCP(=O)(OCC)OCC)cc(C(=O)Nc2ccc(C(=O)NC3=NN(c4c(Cl)cc(Cl)cc4Cl)C(=O)C3)cc2)c1)OCC [(212)]
Abs.max., first of two maxima (subsidiary maximum): 434 nm
Abs.max., second of two maxima (absorption maximum): 544 nm

Compound: CCOP(=O)(CCCCCOc1cccc(C(=O)NC2=NN(c3c(Cl)cc(Cl)cc3Cl)C(=O)C2)c1)OCC [(213)]
Abs.max., first of two maxima (subsidiary maximum): 434 nm
Abs.max., second of two maxima (absorption maximum): 537 nm

Compound: CCOP(=O)(CCCCCOc1cc(OCCCCCP(=O)(OCC)OCC)cc(C(=O)NC2=NN(c3c(Cl)cc(Cl)cc3Cl)C(=O)C2)c1)OCC [(214)]
Abs.max., first of two maxima (subsidiary maximum): 432 nm
Abs.max., second of two maxima (absorption maximum): 540 nm

Abs.max., first of two maxima (subsidiary maximum): 434 nm
Abs.max., second of two maxima (absorption maximum): 540 nm
Compound: CCCCC(CC)COP(=O)(CCCOc1cccc(C(=O)Nc2ccc(C(=O)NC3=NN(c4c(Cl)cc(Cl)cc4Cl)C(=O)C3)cc2)c1)OCC(CC)CCCC (stereo not drawn) [(215)]

Compound: CCOP(=O)(CCCOc1cc(OCCCP(=O)(OCC)OCC)cc(C(=O)Nc2cccc(C(=O)NC3=NN(c4c(Cl)cc(Cl)cc4Cl)C(=O)C3)c2)c1)OCC [(216)]
Abs.max., first of two maxima (subsidiary maximum): 432 nm
Abs.max., second of two maxima (absorption maximum): 546 nm

Compound: CC(C)OP(=O)(CCCOc1cccc(C(=O)NC2=NN(c3c(Cl)cc(Cl)cc3Cl)C(=O)C2)c1)OC(C)C [(217)]
Abs.max., first of two maxima (subsidiary maximum): 435 nm
Abs.max., second of two maxima (absorption maximum): 538 nm

Compound: CCCCOP(=O)(CCCOc1cc(OCCCP(=O)(OCCCC)OCCCC)cc(C(=O)Nc2ccc(C(=O)NC3=NN(c4c(Cl)cc(Cl)cc4Cl)C(=O)C3)cc2)c1)OCCCC [(218)]
Abs.max., first of two maxima (subsidiary maximum): 436 nm
Abs.max., second of two maxima (absorption maximum): 542 nm

Abs.max., first of two maxima (subsidiary maximum): 436 nm
Abs.max., second of two maxima (absorption maximum): 542 nm
Compound: CCCCC(CC)COP(=O)(CCCOc1cccc(C(=O)Nc2cccc(C(=O)NC3=NN(c4c(Cl)cc(Cl)cc4Cl)C(=O)C3)c2)c1)OCC(CC)CCCC (stereo not drawn) [(219)]

Compound: CCCCOP(=O)(CCCOc1cccc(C(=O)Nc2cccc(C(=O)NC3=NN(c4c(Cl)cc(Cl)cc4Cl)C(=O)C3)c2)c1)OCCCC [(220)]
Abs.max., first of two maxima (subsidiary maximum): 434 nm
Abs.max., second of two maxima (absorption maximum): 544 nm

Compound: CCCCOP(=O)(CCCOc1cc(OCCCP(=O)(OCCCC)OCCCC)cc(C(=O)NC2=NN(c3c(Cl)cc(Cl)cc3Cl)C(=O)C2)c1)OCCCC [(221)]
Abs.max., first of two maxima (subsidiary maximum): 436 nm
Abs.max., second of two maxima (absorption maximum): 538 nm

Compound: CCCCOP(=O)(CCCOc1cc(OCCCP(=O)(OCCCC)OCCCC)cc(C(=O)Nc2cccc(C(=O)NC3=NN(c4c(Cl)cc(Cl)cc4Cl)C(=O)C3)c2)c1)OCCCC [(222)]
Abs.max., first of two maxima (subsidiary maximum): 434 nm
Abs.max., second of two maxima (absorption maximum): 544 nm

Compound: CCOP(=O)(CCCOc1cccc(C(=O)Nc2cccc(C(=O)NC3=NN(c4ccccc4)C(=O)C3)c2)c1)OCC [(223)]
Abs.max., first of two maxima (subsidiary maximum): 440 nm
Abs.max., second of two maxima (absorption maximum): 534 nm

Compound: CCCCOP(=O)(CCCOc1cccc(C(=O)Nc2cccc(C(=O)NC3=NN(c4ccccc4)C(=O)C3)c2)c1)OCCCC [(224)]
Abs.max., first of two maxima (subsidiary maximum): 440 nm
Abs.max., second of two maxima (absorption maximum): 534 nm

Abs.max., first of two maxima (subsidiary maximum): 440 nm
Abs.max., second of two maxima (absorption maximum): 532 nm
Compound: CCCCC(CC)COP(=O)(CCCOc1cccc(C(=O)Nc2cccc(C(=O)NC3=NN(c4ccccc4)C(=O)C3)c2)c1)OCC(CC)CCCC (stereo not drawn) [(225)]

Compound: CCOP(=O)(CCCCCOc1cc(OCCCCCP(=O)(OCC)OCC)cc(C(=O)Nc2cccc(C(=O)NC3=NN(c4ccccc4)C(=O)C3)c2)c1)OCC [(226)]
Abs.max., first of two maxima (subsidiary maximum): 439 nm
Abs.max., second of two maxima (absorption maximum): 534 nm

Compound: CCOP(=O)(CCCCCOc1cccc(C(=O)Nc2cccc(C(=O)NC3=NN(c4ccccc4)C(=O)C3)c2)c1)OCC [(227)]
Abs.max., first of two maxima (subsidiary maximum): 438 nm
Abs.max., second of two maxima (absorption maximum): 532 nm

Compound: CCOP(=O)(CCCOc1cc(OCCCP(=O)(OCC)OCC)cc(C(=O)Nc2cccc(C(=O)NC3=NN(c4ccccc4)C(=O)C3)c2)c1)OCC [(228)]
Abs.max., first of two maxima (subsidiary maximum): 438 nm
Abs.max., second of two maxima (absorption maximum): 533 nm

Compound: CCCCOP(=O)(CCCOc1cc(OCCCP(=O)(OCCCC)OCCCC)cc(C(=O)Nc2cccc(C(=O)NC3=NN(c4ccccc4)C(=O)C3)c2)c1)OCCCC [(229)]
Abs.max., first of two maxima (subsidiary maximum): 440 nm
Abs.max., second of two maxima (absorption maximum): 532 nm

Compound: CCOP(=O)(CCCCCOc1cccc(C(=O)Nc2cccc(C(=O)NC3=NN(c4c(Cl)cc(Cl)cc4Cl)C(=O)C3)c2)c1)OCC [(230)]
Abs.max., first of two maxima (subsidiary maximum): 434 nm
Abs.max., second of two maxima (absorption maximum): 544 nm

Compound: CC(C)OP(=O)(CCCOc1cccc(C(=O)Nc2cccc(C(=O)NC3=NN(c4c(Cl)cc(Cl)cc4Cl)C(=O)C3)c2)c1)OC(C)C [(232)]
Abs.max., first of two maxima (subsidiary maximum): 434 nm
Abs.max., second of two maxima (absorption maximum): 541 nm

Abs.max., first of two maxima (subsidiary maximum): 434 nm
Abs.max., second of two maxima (absorption maximum): 540 nm
Compound: CCCCC(CC)COP(=O)(CCCOc1cc(OCCCP(=O)(OCC(CC)CCCC)OCC(CC)CCCC)cc(C(=O)Nc2ccc(C(=O)NC3=NN(c4c(Cl)cc(Cl)cc4Cl)C(=O)C3)cc2)c1)OCC(CC)CCCC (stereo not drawn) [(234)]

Abs.max., first of two maxima (subsidiary maximum): 440 nm
Abs.max., second of two maxima (absorption maximum): 532 nm
Compound: CCCCC(CC)COP(=O)(CCCOc1cc(OCCCP(=O)(OCC(CC)CCCC)OCC(CC)CCCC)cc(C(=O)Nc2cccc(C(=O)NC3=NN(c4ccccc4)C(=O)C3)c2)c1)OCC(CC)CCCC (stereo not drawn) [(235)]

Compound: CCCCOP(=O)(CCCOc1cccc(C(=O)NC2=NN(c3c(Cl)cc(Cl)cc3Cl)C(=O)C2)c1)OCCCC [(237)]
Abs.max., first of two maxima (subsidiary maximum): 432 nm
Abs.max., second of two maxima (absorption maximum): 536 nm

Compound: CC(C)OP(=O)(CCCOc1cc(OCCCP(=O)(OC(C)C)OC(C)C)cc(C(=O)Nc2cccc(C(=O)NC3=NN(c4ccccc4)C(=O)C3)c2)c1)OC(C)C [(238)]
Abs.max., first of two maxima (subsidiary maximum): 440 nm
Abs.max., second of two maxima (absorption maximum): 530 nm

Compound: CC(C)OP(=O)(CCCCCOc1cc(OCCCCCP(=O)(OC(C)C)OC(C)C)cc(C(=O)Nc2cccc(C(=O)NC3=NN(c4ccccc4)C(=O)C3)c2)c1)OC(C)C [(239)]
Abs.max., first of two maxima (subsidiary maximum): 440 nm
Abs.max., second of two maxima (absorption maximum): 532 nm

Compound: CC(C)OP(=O)(CCCOc1cc(OCCCP(=O)(OC(C)C)OC(C)C)cc(C(=O)Nc2cccc(C(=O)NC3=NN(c4c(Cl)cc(Cl)cc4Cl)C(=O)C3)c2)c1)OC(C)C [(240)]
Abs.max., first of two maxima (subsidiary maximum): 434 nm
Abs.max., second of two maxima (absorption maximum): 544 nm

Compound: CC(C)OP(=O)(CCCCCOc1cc(OCCCCCP(=O)(OC(C)C)OC(C)C)cc(C(=O)Nc2cccc(C(=O)NC3=NN(c4c(Cl)cc(Cl)cc4Cl)C(=O)C3)c2)c1)OC(C)C [(243)]
Abs.max., first of two maxima (subsidiary maximum): 434 nm
Abs.max., second of two maxima (absorption maximum): 544 nm

Compound: CC(C)OP(=O)(CCCCCOc1cccc(C(=O)Nc2ccc(C(=O)NC3=NN(c4c(Cl)cc(Cl)cc4Cl)C(=O)C3)cc2)c1)OC(C)C [(244)]
Abs.max., first of two maxima (subsidiary maximum): 434 nm
Abs.max., second of two maxima (absorption maximum): 542 nm

Compound: CC(C)OP(=O)(CCCCCOc1cccc(C(=O)Nc2cccc(C(=O)NC3=NN(c4c(Cl)cc(Cl)cc4Cl)C(=O)C3)c2)c1)OC(C)C [(245)]
Abs.max., first of two maxima (subsidiary maximum): 434 nm
Abs.max., second of two maxima (absorption maximum): 542 nm

Compound: CC(C)OP(=O)(CCCCCOc1cccc(C(=O)Nc2cccc(C(=O)NC3=NN(c4ccccc4)C(=O)C3)c2)c1)OC(C)C [(246)]
Abs.max., first of two maxima (subsidiary maximum): 440 nm
Abs.max., second of two maxima (absorption maximum): 532 nm

Compound: CCCCOP(=O)(CCCOc1ccc(C(=O)Nc2cccc(C(=O)NC3=NN(c4c(Cl)cc(Cl)cc4Cl)C(=O)C3)c2)c(OCCCP(=O)(OCCCC)OCCCC)c1)OCCCC [(248)]
Abs.max., first of two maxima (subsidiary maximum): 436 nm
Abs.max., second of two maxima (absorption maximum): 541 nm

Abs.max., first of two maxima (subsidiary maximum): 436 nm
Abs.max., second of two maxima (absorption maximum): 540 nm
Compound: CCCCC(CC)COP(=O)(CCCOc1ccc(C(=O)Nc2cccc(C(=O)NC3=NN(c4c(Cl)cc(Cl)cc4Cl)C(=O)C3)c2)c(OCCCP(=O)(OCC(CC)CCCC)OCC(CC)CCCC)c1)OCC(CC)CCCC (stereo not drawn) [(251)]

Compound: CCCCOP(=O)(CCCOc1cc(OCCCP(=O)(OCCCC)OCCCC)cc(C(=O)NC2=NN(c3ccc(C#N)cc3)C(=O)C2)c1)OCCCC [(253)]
Abs.max., first of two maxima (subsidiary maximum): 440 nm
Abs.max., second of two maxima (absorption maximum): 540 nm

Compound: CCCCOP(=O)(CCCOc1cc(OCCCP(=O)(OCCCC)OCCCC)cc(C(=O)NC2=NN(c3c(C)c(Cl)c(OC)c(Cl)c3Cl)C(=O)C2)c1)OCCCC [(254)]
Abs.max., first of two maxima (subsidiary maximum): 438 nm
Abs.max., second of two maxima (absorption maximum): 540 nm

Compound: CCCCOP(=O)(CCCOc1cc(OCCCP(=O)(OCCCC)OCCCC)cc(C(=O)Nc2cccc(C(=O)NC3=NN(c4cccc(Cl)c4)C(=O)C3)c2)c1)OCCCC [(255)]
Abs.max., first of two maxima (subsidiary maximum): 438 nm
Abs.max., second of two maxima (absorption maximum): 536 nm

Abs.max., first of two maxima (subsidiary maximum): 438 nm
Abs.max., second of two maxima (absorption maximum): 534 nm
Compound: CCCCC(CC)COP(=O)(CCCOc1cccc(C(=O)Nc2cccc(C(=O)NC3=NN(c4cccc(Cl)c4)C(=O)C3)c2)c1)OCC(CC)CCCC (stereo not drawn) [(256)]
